Data reported in patent publication EP0377967A2, “9-Aza-3-(oxa/thia)-bicyclo[3,2,1]nonane derivatives, process and intermediates for their preparation and pharmaceutical compositions containing them” (BEECHAM GROUP PLC, priority 1988, dated 1990).

Test system: von Bezold-Jarisch reflex evoked by 5-HT
Assay: Antagonism of the von Bezold-Jarisch reflex
Type: in vivo
Settings: anaesthetised rat; dose of 1µg/kg i.v.
Method: The compounds were evaluated for antagonism of the von Bezold-Jarisch reflex evoked by 5-HT in the anaesthetised rat according to the following method:
Male rats 250-350g, were anaesthetised with urethane (1.25g/kg intraperitoneally) and blood pressure and heart rate recorded as described by Fozard J.R. et al., J. Cardiovasc. Pharmacol. 2, 229-245 (1980). A submaximal dose of 5-HT (usually 6µg/kg) was given repeatedly by the intravenous route and changes in heart rate quantified. Compounds were given intravenously and the concentration required to reduce the 5-HT-evoked response to 50% of the control response (ED₅₀) was then determined.

SMILES	activity (antagonism of the von Bezold-Jarisch reflex)
COc1ccccc1NC(=O)NC1CC2COCC(C1)N2C (stereo not drawn) [Example E3, endo-N-(9-Methyl-9-aza-3-oxabicyclo[3.3.1]nonan-7-yl)-N′-(2-methoxyphenyl)urea]	active
CN1C2COCC1CC(NC(=O)c1nn(C)c3ccccc13)C2 (stereo not drawn) [Example E4, endo-N-(9-Methyl-9-aza-3-oxabicyclo[3.3.1]nonan-7-yl)-1-methyl-1H-indazol-3-carboxamide]	active
CN1C2COCC1CC(NC(=O)N1CC(C)(C)c3ccccc31)C2 (stereo not drawn) [Example E5, endo-N-(9-Methyl-9-aza-3-oxabicyclo[3.3.1]nonan-7-yl)-3,3-dimethyl-1-indoline carboxamide]	active
